Laboratory results from patent US20230348538A1, “METHOD FOR TREATMENT OF DRY EYE COMPRISNG APPLYING P55PIK INHIBITOR” (Wuhan Yicheng Biological Technology Co., Ltd., priority 2020, published 2023).

Columns and labels:
[1] = tested on: dry eye model induced by 0.2% benzalkonium chloride solution; assay: Benzalkonium chloride dry eye model: conjunctival goblet cells (PAS staining); assay type: in vivo, C57BL/6 mice
Description: (§1) The healthy male C57BL/6 mice were kept in a controlled environment with a temperature of (25±1)° C., a relative humidity of (25±5)%, and light-dark cycles (9 AM-9 PM) with simulated dawn and dusk. Forty mice (80 eyes) were treated with 5 μL of 0.2% benzalkonium chloride solution twice a day (8:00 AM and 6:00 PM) for 14 days to induce dry eye symptoms, while the remaining ten mice (20 eyes) received no treatment and served as a baseline control. […] Group A, the drug treatment group, was treated with the eye drops comprising 0.1% TAT-[…] peptide, four times a day; Group B, the solvent control group, was treated with eye drops without TAT-[…] peptide, four times a day; and Group C, the blank control group, received no treatment; on days 1, 4, and 7 after treatment, BUT, Schirmer's test I, and fluorescein sodium staining were performed; on the 7th day, the paraffin sections of the conjunctival fornix was stained by PAS stain; and the number of PAS-positive goblet cells was counted.

[2] = tested on: rat model of dry eye caused by low tear secretion; assay: Rat model of dry eye caused by low tear secretion (atropine): lacrimal secretion test (Schirmer's test II); assay type: in vivo, SD rats
Description: 1.2.2 Modeling: a rat model of dry eye caused by low tear secretion, was established using the Burgalassi method of atropine injection into the lacrimal glands; eighteen laboratory rats, with equal numbers of male and female, were given 0.4% oxybucaine hydrochloride eye drops in both eyes and injected with 0.25 mL of 0.5 mg/mL atropine into the lacrimal glands four times a day for both eyes; the results of lacrimal secretion test were recorded 0.5 hours after the atropine injection every day; and the atropine injection was continued until the 7th day.
Grouping and administration: six laboratory rats, with equal numbers of male and female, were used as the normal control group and were not modeled; the eighteen successfully modeled laboratory rats were randomly divided into three model groups, with 6 rats in each model group, half male and half female; Model group 1 was the blank control group and received no treatment; Model group 2 was the solvent control group and treated with solvent eye drops that contained a solvent but no TAT-N16 peptide; Model group 3 was the drug treatment group and was treated with eye drops comprising 0.1% TAT-N16 peptide; the eye drops was administered four times a day (1 drop/time) for 7 days; the amount of the lacrimal secretion of each eye was recorded on days 0, 4 and 7 after treatment; the expression levels of P55PIK gene and p55PIK protein in the rat eyes of the normal control group and the model groups were detected.
1.2.2.1 Lacrimal secretion test (Schirmer's test II): due to the smaller eyeballs of SD rats compared to human, the Schirmer tear test strips designed for human use were not suitable for use in the SD rats; therefore, the Schirmer's test II was conducted by cutting a 5 mm x 35 mm Schirmer tear test strip into two strips of 2.5 mm×35 mm each, folding the front end, and lightly placing the Schirmer tear test strip at the junction of the posterior-middle ⅓ of the lower eyelid; after 5 minutes, the Schirmer tear test strips were removed; and the length of the Schirmer tear test strips wetted by tears were measured for 2 minutes and the measurement was repeated three times to obtain an average value; the results were recorded before the treatment, and on the 4th and 7th day after treatment.

[3] = tested on: rabbit model of dry eye (0.1% benzalkonium chloride); assay: Rabbit model of dry eye: conjunctiva appearance and fluorescein staining; assay type: in vivo, New Zealand white rabbits
Description: 1.2.1 Grouping: thirty New Zealand white rabbits were randomly divided into three groups, each comprising 10 rabbits: a blank control group, a solvent control group, and a drug treatment group.
1.2.2 Preparation of a rabbit model of dry eye: the right eye of each rabbit was used to establish a dry eye rabbit model by administering 0.1% benzalkonium chloride eye drops twice a day for 4 weeks. After 4 weeks, the dry eye rabbit model was evaluated, with the conjunctiva appearing dry, tear production being reduced, and Schirmer test values being less than 10 mm/5 min (compared to the control group, where all Schirmer test values were above 10 mm).
1.2.3 Drug preparation and usage: a liquid formulation of 0.1% TAT-N16 peptide eye drops were prepared by dissolving the peptide raw materials in physiological saline according to a weight ratio of 0.1%. The eye drops comprising 0.1% TAT-N16 peptide were administered 2 drops, 3 times a day for 7 days. The blank control group received no treatment, and the solvent control group received physiological saline eye drops 2 drops, 3 times a day for 7 days. The normal eye group served as a normal control group.
1.3 Specimen collection and animal testing were conducted by the same individual. The examination time, location, illumination brightness, and temperature were consistent throughout the experiment. The rabbit conjunctiva appearance, fluorescein staining, tear film break-up time were analyzed using a slit lamp before and on days 4 and 7 after treatment; additionally, the Schirmer's test and conjunctival impression cytology (CIC) were carried out.

[4] = tested on: dry eye model induced by 0.2% benzalkonium chloride solution; assay: Benzalkonium chloride dry eye model: tear film break-up time (BUT); assay type: in vivo, C57BL/6 mice
Description: as §1, with “control. Modeling was carried out on the 15th day; and the dry eye rat models were screened based on tear film break-up time (BUT), fluorescein sodium staining of corneal, and Schirmer's test I for tear secretion. Tear film break-up time (BUT) was used to assess the tear film stability: 1 μL of 1% fluorescein sodium solution was instilled into the conjunctival sac of the mouse, and the mouse was held and blinked artificially three times; the upper and lower eyelids of the mouse were then separated; and the tear film was observed under cobalt blue filter on a slit lamp; the tear film break-up time was recorded as the number of seconds that elapse between the last blink and the appearance of the first dry spot in the tear film of the cornea; each eye was measured three times, and the average of the three measurements was recorded in seconds.” for “control.”

## TAT-N16 peptide: cell-penetrating artificial peptide, sequence SEQ ID NO: 2, constructed by linking the peptide N16 to a TAT sequence; P55PIK inhibitor (YGRKKRRQRRRMMPYSTELIFYIEMDP)
[1]; 7 days of continuous treatment, P<0.01, FIG. 4
  Density of conjunctival goblet cells compared with blank control group and solvent control group: significantly higher
[1]; after treatment with the eye drops
  Number of conjunctival goblet cells (PAS-stained paraffin sections of the conjunctival fornix): increased significantly
[2]; 4th and 7th day of treatment, P<0.05
  Tear secretion compared with the control groups: significantly higher
[2]; after 4 days of treatment, 0.1% eye drops four times a day
  Schirmer's test II values (x ± s, n = 6): 5.74 ± 1.59 mm
[2]; after 7 days of treatment, 0.1% eye drops four times a day
  Schirmer's test II values (x ± s, n = 6): 8.58 ± 1.73 mm
[2]; before treatment (baseline), drug treatment group, 0.1% eye drops
  Schirmer's test II values (x ± s, n = 6): 3.29 ± 1.34 mm
[3]; after 4 days of treatment
  Appearance of the rabbit conjunctiva: improved
  Dot-like and patchy fluorescein staining on the conjunctiva: decreased
[3]; after 7 days of treatment
  Appearance of the rabbit conjunctiva: appeared moist
  Fluorescein staining on the conjunctiva: no staining was observed
[4]; 0 d (baseline), drug treatment group, 0.1% eye drops
  Tear film break-up time (BUT) values (x ± s): 3.49 ± 0.43 s
[4]; 4th day of treatment
  Tear film break-up time compared with blank control group, model control group and solvent control group: significantly longer
[4]; 4 d, 0.1% eye drops four times a day
  Tear film break-up time (BUT) values (x ± s): 4.82 ± 0.57 s
[4]; 7 d, 0.1% eye drops four times a day
  Tear film break-up time (BUT) values (x ± s): 5.99 ± 0.55 s
[4]; 7 days of continuous treatment, P=0.007
  Tear film break-up time compared with blank control group, model control group and solvent control group: significantly longer
